# Values quoted from earlier work, collected in PMC4168267 (Scientific Reports, 2014).
# Legend:
# chymotrypsin = test: chymotrypsin
# Gαi1-GDP = Gαi1-GDP (Homo sapiens, UniProt P63096); details: R6A reference peptide of the competition assay
# Gαi1-GDP, sequence (P63096 whole entry): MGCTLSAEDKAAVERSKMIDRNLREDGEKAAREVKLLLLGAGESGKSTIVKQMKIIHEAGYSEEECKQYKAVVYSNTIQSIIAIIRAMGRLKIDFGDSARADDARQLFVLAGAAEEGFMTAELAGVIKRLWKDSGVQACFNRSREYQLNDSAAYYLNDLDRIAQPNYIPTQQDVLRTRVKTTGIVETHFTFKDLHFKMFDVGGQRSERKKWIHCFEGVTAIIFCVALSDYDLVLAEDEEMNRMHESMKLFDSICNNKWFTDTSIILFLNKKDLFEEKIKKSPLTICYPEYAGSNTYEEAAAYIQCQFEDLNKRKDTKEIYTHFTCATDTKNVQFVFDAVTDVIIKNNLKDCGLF
cleaved bond (chymotrypsin),not cleaved (chymotrypsin),Kd (Gαi1-GDP) [nM],Sequence
"Y5-E, major",intact,,MITWYEFVAGTK
,,60,MSQTKRLDDQLYWWEYL [Peptide R6A]
